From EP4745135A1 (Gluetacs Therapeutics (Shanghai) Co., Ltd., priority 2023, dated 2025)

Tests used:
[1] = target: T1, CK1α (Homo sapiens, UniProt P48729+Q96SW2); experiment: Western blot, degradation of substrate protein in hPBMCs; type: cell-based; settings: Western blot, 24 hours of compound treatment, compounds tested at 50 nM and 500 nM (concentration for the table not stated)
T1 construct: effects of the compounds of the present disclosure on the expression of target proteins in cells; endogenous in cells; host or cells: human PBMCs (Milecell Biotechnologies)

[2] = target: T2, IKZF1 (Homo sapiens, UniProt Q13422+Q96SW2); experiment: as above; type: cell-based; settings: Western blot, 24 hours of compound treatment, compounds tested at 50 nM and 500 nM (concentration for the table not stated)
T2 construct: effects of the compounds of the present disclosure on the expression of target proteins in cells; endogenous in cells; host or cells: human PBMCs (Milecell Biotechnologies)

[3] = target: T3, IKZF2 (Homo sapiens, UniProt Q96SW2+Q9UKS7); experiment: as above; type: cell-based; settings: Western blot, 24 hours of compound treatment, compounds tested at 50 nM and 500 nM (concentration for the table not stated)
T3 construct: effects of the compounds of the present disclosure on the expression of target proteins in cells; endogenous in cells; host or cells: human PBMCs (Milecell Biotechnologies)

[4] = target: T4, IKZF3 (Homo sapiens, UniProt Q96SW2+Q9UKT9); experiment: as above; type: cell-based; settings: Western blot, 24 hours of compound treatment, compounds tested at 50 nM and 500 nM (concentration for the table not stated)
T4 construct: effects of the compounds of the present disclosure on the expression of target proteins in cells; endogenous in cells; host or cells: human PBMCs (Milecell Biotechnologies)

[5] = target: T5, WEE1 (Homo sapiens, UniProt P30291+Q96SW2); experiment: as above; type: cell-based; settings: Western blot, 24 hours of compound treatment, compounds tested at 50 nM and 500 nM (concentration for the table not stated)
T5 construct: effects of the compounds of the present disclosure on the expression of target proteins in cells; endogenous in cells; host or cells: human PBMCs (Milecell Biotechnologies)

[6] = tested on: GSPT1; experiment: as above; type: cell-based, Human; settings: Western blot, 24 hours of compound treatment, compounds tested at 50 nM and 500 nM (concentration for the table not stated)
[7] = target: T6, human Cereblon WT GST-tagged protein (Homo sapiens, UniProt Q96SW2); experiment: CRBN-binding affinity, HTRF (CEREBLON BINDING kit); settings: for inhibition at 0.5 µM: read-out: Inhibition Rate at 0.5 µM (%); for inhibition at 2 µM: read-out: Inhibition Rate at 2 µM (%)
T6 construct: purchased CISBIO 64BDCRBNPEH

[8] = tested on: Human myeloid monocytic leukemia cell (MV-4-11); experiment: Tumor cell proliferation inhibition (CellTiter-Meiluncell luminescent cell viability assay); settings: MV4-11, 96 h; for inhibition at 0.01 µM: read-out: Inhibition Rate at 10 nM (%); for inhibition at 0.5 µM: read-out: Inhibition Rate at 500 nM (%)
[9] = tested on: Human acute myeloid leukemia cell line: Kasumi-1; experiment: as above; settings: Kasumi 1, 96 h; for inhibition at 0.01 µM: read-out: Inhibition Rate at 10 nM (%); for inhibition at 0.5 µM: read-out: Inhibition Rate at 500 nM (%)
[10] = tested on: Human T lymphocytic leukemia cell line: Jurkat; experiment: as above; settings: 96 h; for inhibition at 0.01 µM: read-out: Inhibition Rate at 10 nM (%); for inhibition at 0.5 µM: read-out: Inhibition Rate at 500 nM (%)

T1 sequence (P48729 whole entry): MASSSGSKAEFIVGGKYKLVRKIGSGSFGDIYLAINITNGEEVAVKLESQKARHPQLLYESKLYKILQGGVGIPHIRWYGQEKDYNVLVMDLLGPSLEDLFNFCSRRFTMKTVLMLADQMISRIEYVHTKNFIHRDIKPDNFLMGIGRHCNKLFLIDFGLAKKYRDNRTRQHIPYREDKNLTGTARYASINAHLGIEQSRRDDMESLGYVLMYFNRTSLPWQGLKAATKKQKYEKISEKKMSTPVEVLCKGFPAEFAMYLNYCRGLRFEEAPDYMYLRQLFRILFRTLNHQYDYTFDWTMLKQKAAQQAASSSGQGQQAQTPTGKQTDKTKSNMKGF
T1 sequence (Q96SW2 whole entry): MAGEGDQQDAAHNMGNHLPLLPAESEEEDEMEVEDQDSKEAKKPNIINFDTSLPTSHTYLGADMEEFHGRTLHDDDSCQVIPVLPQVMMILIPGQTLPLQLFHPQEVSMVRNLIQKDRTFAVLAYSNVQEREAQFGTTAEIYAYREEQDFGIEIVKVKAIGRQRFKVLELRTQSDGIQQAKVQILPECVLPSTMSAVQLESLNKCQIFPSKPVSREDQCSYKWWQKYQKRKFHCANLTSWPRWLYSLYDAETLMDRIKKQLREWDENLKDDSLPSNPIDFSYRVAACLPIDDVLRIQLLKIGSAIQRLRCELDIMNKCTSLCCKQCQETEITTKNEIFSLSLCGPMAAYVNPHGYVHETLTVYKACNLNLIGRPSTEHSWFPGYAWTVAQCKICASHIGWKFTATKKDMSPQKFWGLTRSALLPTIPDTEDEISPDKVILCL
T1 sequence (Q16531 whole entry partner): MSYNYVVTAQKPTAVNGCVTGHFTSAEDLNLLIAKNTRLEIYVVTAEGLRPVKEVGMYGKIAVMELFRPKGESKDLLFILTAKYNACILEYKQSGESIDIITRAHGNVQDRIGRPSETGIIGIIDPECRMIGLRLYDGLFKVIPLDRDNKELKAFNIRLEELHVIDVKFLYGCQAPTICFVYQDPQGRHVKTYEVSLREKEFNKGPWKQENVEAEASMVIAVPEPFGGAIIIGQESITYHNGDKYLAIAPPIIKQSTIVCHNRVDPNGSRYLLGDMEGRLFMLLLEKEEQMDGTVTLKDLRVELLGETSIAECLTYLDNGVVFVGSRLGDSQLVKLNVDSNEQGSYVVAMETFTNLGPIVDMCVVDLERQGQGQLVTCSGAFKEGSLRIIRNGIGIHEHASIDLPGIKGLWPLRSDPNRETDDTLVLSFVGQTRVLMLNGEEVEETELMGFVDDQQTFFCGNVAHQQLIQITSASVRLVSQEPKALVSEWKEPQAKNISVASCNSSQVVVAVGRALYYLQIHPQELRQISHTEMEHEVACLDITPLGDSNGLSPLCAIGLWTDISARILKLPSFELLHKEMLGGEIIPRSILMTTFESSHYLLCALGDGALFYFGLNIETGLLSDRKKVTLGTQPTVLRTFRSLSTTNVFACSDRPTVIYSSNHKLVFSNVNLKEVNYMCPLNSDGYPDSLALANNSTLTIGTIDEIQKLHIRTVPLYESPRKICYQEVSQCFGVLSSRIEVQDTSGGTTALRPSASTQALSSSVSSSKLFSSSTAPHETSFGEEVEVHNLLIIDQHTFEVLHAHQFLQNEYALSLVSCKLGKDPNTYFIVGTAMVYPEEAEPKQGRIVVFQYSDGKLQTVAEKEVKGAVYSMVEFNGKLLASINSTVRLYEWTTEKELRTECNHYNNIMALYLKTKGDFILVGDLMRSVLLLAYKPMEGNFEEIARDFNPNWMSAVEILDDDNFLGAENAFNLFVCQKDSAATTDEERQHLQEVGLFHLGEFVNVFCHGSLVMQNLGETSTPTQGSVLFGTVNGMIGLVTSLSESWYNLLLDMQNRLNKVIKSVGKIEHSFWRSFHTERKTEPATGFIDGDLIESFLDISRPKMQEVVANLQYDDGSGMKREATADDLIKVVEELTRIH
T6 sequence (Q96SW2 whole entry): as the sequence (Q96SW2 whole entry) above
T5 sequence (P30291 whole entry): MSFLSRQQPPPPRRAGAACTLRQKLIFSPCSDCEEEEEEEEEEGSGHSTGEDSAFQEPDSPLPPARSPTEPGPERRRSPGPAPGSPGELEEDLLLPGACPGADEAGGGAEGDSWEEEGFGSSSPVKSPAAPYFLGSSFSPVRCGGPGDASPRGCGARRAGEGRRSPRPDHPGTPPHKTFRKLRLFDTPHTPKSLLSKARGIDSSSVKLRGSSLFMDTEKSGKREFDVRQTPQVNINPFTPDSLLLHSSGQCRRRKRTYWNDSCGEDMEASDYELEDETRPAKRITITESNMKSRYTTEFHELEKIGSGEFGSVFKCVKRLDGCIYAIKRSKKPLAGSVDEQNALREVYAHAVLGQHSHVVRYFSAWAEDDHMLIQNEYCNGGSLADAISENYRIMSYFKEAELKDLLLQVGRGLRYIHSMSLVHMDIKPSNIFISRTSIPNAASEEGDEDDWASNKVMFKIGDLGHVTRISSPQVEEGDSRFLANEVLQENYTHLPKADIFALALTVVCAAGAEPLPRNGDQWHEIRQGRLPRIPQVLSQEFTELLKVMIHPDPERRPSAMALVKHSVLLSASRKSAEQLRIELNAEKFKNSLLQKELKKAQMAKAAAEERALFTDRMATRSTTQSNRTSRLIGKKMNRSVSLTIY
T5 sequence (Q96SW2 whole entry): as the sequence (Q96SW2 whole entry) above
T5 sequence (Q16531 whole entry partner): as the sequence (Q16531 whole entry partner) above
T3 sequence (Q9UKS7 whole entry): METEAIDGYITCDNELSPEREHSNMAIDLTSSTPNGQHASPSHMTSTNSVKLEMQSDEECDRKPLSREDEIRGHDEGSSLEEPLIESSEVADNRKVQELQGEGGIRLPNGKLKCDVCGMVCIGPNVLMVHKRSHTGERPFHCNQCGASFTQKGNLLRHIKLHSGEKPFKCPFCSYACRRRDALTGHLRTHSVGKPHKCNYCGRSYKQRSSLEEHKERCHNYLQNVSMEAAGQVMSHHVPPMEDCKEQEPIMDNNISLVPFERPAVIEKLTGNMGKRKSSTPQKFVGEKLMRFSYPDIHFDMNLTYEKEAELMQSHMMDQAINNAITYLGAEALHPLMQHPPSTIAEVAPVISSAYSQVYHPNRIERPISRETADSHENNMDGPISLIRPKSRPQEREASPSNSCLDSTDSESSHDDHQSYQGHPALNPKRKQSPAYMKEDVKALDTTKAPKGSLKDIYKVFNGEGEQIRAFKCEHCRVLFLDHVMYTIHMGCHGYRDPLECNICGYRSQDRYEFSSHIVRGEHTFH
T3 sequence (Q96SW2 whole entry): as the sequence (Q96SW2 whole entry) above
T3 sequence (Q16531 whole entry partner): as the sequence (Q16531 whole entry partner) above
T2 sequence (Q13422 whole entry): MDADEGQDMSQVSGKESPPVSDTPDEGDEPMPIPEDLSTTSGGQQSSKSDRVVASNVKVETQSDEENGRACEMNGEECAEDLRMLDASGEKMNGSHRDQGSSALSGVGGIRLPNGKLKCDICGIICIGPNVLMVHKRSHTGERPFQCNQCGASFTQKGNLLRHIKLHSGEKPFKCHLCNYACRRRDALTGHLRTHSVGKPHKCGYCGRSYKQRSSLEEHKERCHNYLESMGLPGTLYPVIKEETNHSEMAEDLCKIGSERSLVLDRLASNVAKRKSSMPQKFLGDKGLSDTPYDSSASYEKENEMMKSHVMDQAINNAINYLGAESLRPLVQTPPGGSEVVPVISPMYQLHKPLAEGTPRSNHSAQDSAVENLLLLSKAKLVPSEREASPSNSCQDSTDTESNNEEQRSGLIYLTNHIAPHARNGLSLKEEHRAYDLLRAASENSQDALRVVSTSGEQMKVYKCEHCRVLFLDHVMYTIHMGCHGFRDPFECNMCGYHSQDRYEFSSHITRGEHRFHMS
T2 sequence (Q96SW2 whole entry): as the sequence (Q96SW2 whole entry) above
T2 sequence (Q16531 whole entry partner): as the sequence (Q16531 whole entry partner) above
T4 sequence (Q9UKT9 whole entry): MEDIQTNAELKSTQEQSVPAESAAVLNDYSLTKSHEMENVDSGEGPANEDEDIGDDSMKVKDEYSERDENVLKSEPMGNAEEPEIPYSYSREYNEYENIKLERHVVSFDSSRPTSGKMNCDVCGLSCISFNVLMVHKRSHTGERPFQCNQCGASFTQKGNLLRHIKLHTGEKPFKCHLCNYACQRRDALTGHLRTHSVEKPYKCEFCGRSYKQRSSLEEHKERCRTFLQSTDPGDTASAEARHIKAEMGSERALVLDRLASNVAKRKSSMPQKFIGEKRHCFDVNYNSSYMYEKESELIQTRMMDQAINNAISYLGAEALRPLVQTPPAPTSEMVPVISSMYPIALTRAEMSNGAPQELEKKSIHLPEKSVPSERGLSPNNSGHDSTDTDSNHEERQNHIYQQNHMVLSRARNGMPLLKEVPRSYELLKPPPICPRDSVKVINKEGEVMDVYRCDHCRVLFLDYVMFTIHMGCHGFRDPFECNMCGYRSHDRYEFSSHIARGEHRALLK
T4 sequence (Q96SW2 whole entry): as the sequence (Q96SW2 whole entry) above
T4 sequence (Q16531 whole entry partner): as the sequence (Q16531 whole entry partner) above

O=C1CCC(N2Cc3c(CN4CCN(c5cccc(F)c5F)CC4)cccc3C2=S)C(=O)N1 (stereo not shown) [GT-08268, 3-(4-((4-(2,3-difluorophenyl)piperazin-1-yl)methyl)-1-thioxoisoindolin-2-yl)piperidine-2,6-dione]
CK1α substrate protein remaining % [1]: B (80%< substrate protein remaining %≤ 100%)
IKZF 1 substrate protein remaining % [2]: B (80%< substrate protein remaining %≤ 100%)
IKZF2 substrate protein remaining % [3]: B (80%< substrate protein remaining %≤ 100%)
IKZF3 substrate protein remaining % [4]: B (80%< substrate protein remaining %≤ 100%)
Wee1 substrate protein remaining % [5]: A (0% ≤ substrate protein remaining % ≤ 80%)
GSPT1 substrate protein remaining % [6]: A (0% ≤ substrate protein remaining % ≤ 80%)
inhibition at 0.5 µM [7]: 40 to 53%
inhibition at 2 µM [7]: 60 to 80%
inhibition at 0.01 µM [8]: 60 to 80%
inhibition at 0.5 µM [8]: 60 to 80%
inhibition at 0.01 µM [9]: 50 to 60%
inhibition at 0.5 µM [9]: 50 to 60%

O=C1CCC(N2Cc3cc(CN4CCN(c5cccc(Cl)c5Cl)CC4)ccc3C2=S)C(=O)N1 (stereo not shown) [GT-04474, 3-(5-((4-(2,3-dichlorophenyl)piperazin-1-yl)methyl)-1-thioxoisoindolin-2-yl)piperidine-2,6-dione]
CK1α substrate protein remaining % [1]: B (80%< substrate protein remaining %≤ 100%)
IKZF 1 substrate protein remaining % [2]: A (0% ≤ substrate protein remaining % ≤ 80%)
IKZF2 substrate protein remaining % [3]: A (0% ≤ substrate protein remaining % ≤ 80%)
IKZF3 substrate protein remaining % [4]: A (0% ≤ substrate protein remaining % ≤ 80%)
Wee1 substrate protein remaining % [5]: A (0% ≤ substrate protein remaining % ≤ 80%)
GSPT1 substrate protein remaining % [6]: A (0% ≤ substrate protein remaining % ≤ 80%)
IC50 ([7]; CRBN binding, HTRF, 3 hours at room temperature, read-out: HTRF IC50): 500 to 1000 nM
IC50 ([10]; read-out: Inhibitory activity (IC50, nM) on tumor cell proliferation, Jurkat): 50 to 100 nM

O=C1CCC(N2Cc3c(CN4CC=C(c5cccc(F)c5Cl)CC4)cccc3C2=S)C(=O)N1 (stereo not shown) [GT-08301, 3-(4-((4-(2-chloro-3-fluorophenyl)-3,6-dihydropyridin-1(2H)-yl)methyl)-1-thioxoisoindolin-2-yl)piperidine-2,6-dione]
CK1α substrate protein remaining % [1]: A (0% ≤ substrate protein remaining % ≤ 80%)
IKZF 1 substrate protein remaining % [2]: B (80%< substrate protein remaining %≤ 100%)
IKZF2 substrate protein remaining % [3]: B (80%< substrate protein remaining %≤ 100%)
IKZF3 substrate protein remaining % [4]: B (80%< substrate protein remaining %≤ 100%)
Wee1 substrate protein remaining % [5]: A (0% ≤ substrate protein remaining % ≤ 80%)
GSPT1 substrate protein remaining % [6]: A (0% ≤ substrate protein remaining % ≤ 80%)
inhibition at 0.01 µM [8]: 40 to 60%
inhibition at 0.5 µM [8]: 40 to 60%
inhibition at 0.01 µM [9]: 50 to 60%
inhibition at 0.5 µM [9]: 50 to 60%
inhibition at 0.01 µM [10]: 20 to 30%
inhibition at 0.5 µM [10]: 30 to 40%

CC1(C)CCC(CN2CC3CCC(C2)N3Cc2cccc3c2CN(C2CCC(=O)NC2=O)C3=S)=C(c2ccc(Cl)cc2)C1 (stereo not shown) [GT-08292, 3-(4-((3-((4'-chloro-5,5-dimethyl-3,4,5,6-tetrahydro-[1,1'-biphenyl]-2-yl)methyl)-3,8-diazabicyclo[3.2.1]octan-8-yl)methyl)-1-thioxoisoindolin-2-yl)piperidine-2,6-dione]
CK1α substrate protein remaining % [1]: A (0% ≤ substrate protein remaining % ≤ 80%)
IKZF 1 substrate protein remaining % [2]: B (80%< substrate protein remaining %≤ 100%)
IKZF2 substrate protein remaining % [3]: B (80%< substrate protein remaining %≤ 100%)
IKZF3 substrate protein remaining % [4]: B (80%< substrate protein remaining %≤ 100%)
Wee1 substrate protein remaining % [5]: A (0% ≤ substrate protein remaining % ≤ 80%)
GSPT1 substrate protein remaining % [6]: A (0% ≤ substrate protein remaining % ≤ 80%)
inhibition at 0.5 µM [7]: 30 to 40%
inhibition at 2 µM [7]: 60 to 80%
inhibition at 0.01 µM [8]: 60 to 80%
inhibition at 0.5 µM [8]: 60 to 80%
inhibition at 0.01 µM [9]: 60 to 70%
inhibition at 0.5 µM [9]: 50 to 60%
inhibition at 0.01 µM [10]: 30 to 40%
inhibition at 0.5 µM [10]: 30 to 40%
